{
  "source": "patent US9206236B2",
  "about": "“Peptides for treating cancer” (Gene Signal International SA, priority 2010, dated 2015)",
  "key": {"mTOR": {"system": "mTOR", "test": "mTOR status in HMEC after incubation with peptides (anti-mTor antibody Ser2448)", "format": "cell-based, human", "description": "Human EC grown in EGM-2MV (80% confluence) were incubated with the peptides of the invention or vehicle for the indicated time, washed three times in cold PBS and directly lysed in 2 ml of ice-cold lysis buffer (10 mM Tris pH 7.5, 150 mM NaCl, 1 mM PMSF, 0.5 μg/ml leupeptin, 1 μg/ml pepstatin A, and 1 μg/ml aprotinin) by incubation for 30 min at 4° C. Cell lysate were spun at […] for 10 min, insoluble materials were discarded, and protein contents measured by Bradford assay of supernatants were adjusted. Cell lysate (1 ml) was precleared with 25 μl of protein G-plus agarose beads (Santa Cruz) for 30 min, and proteins were then immunoprecipitated by adding 2 μg of the indicated antibody and incubated for 1 hr. The immunocomplex was pulled down with protein G-plus agarose beads and the beads were washed three times with lysis buffer. The immunoprecipitates were separated by NuPAGE® 4-12% Bis-Tris gel electrophoresis under reducing conditions, transferred to PVDF membrane (Novex System, Invitrogen), and the membrane was blocked with 5% (w/v) non-fat milk in TBS containing 0.1% v/v Tween-20 for 1 hr.\nThe status of mTOR in the HMEC following incubation with peptides GS-0 and GS-1 was investigated."}, "NCI-H460 tumors": {"system": "NCI-H460 tumors", "test": "NCI-H460 tumor xenograft in nude mice, tumor volume (Example 2)", "format": "in vivo", "description": "H460 cell line has cytology compatible with human Non-Small Cell Lung Cancer (NSCL). Cells were grown in MEM medium containing 10% FCS at 37° C., 5% CO2 humidified atmosphere. The absence of mycoplasms was confirmed by using the PCR Mycoplasma Detection kit (Takara). All experiments were reviewed by the Genopole's institutional animal care and use committee and were performed in accordance with institutional guidelines for animal care. Female BALB/c nu/nu mice (n=30) were used at 5-6 weeks of age. The animals were housed in laminar air-flow cabinets under pathogen-free conditions with a 12 h light/12 h dark schedule, and fed autoclaved standard chow and water ad libitum. The NCI-H460 human NSCL cell line was obtained from American Type Culture Collection (ATCC) and cells were grown in RPMI medium 1640 supplemented with 1 μM sodium pyruvate. Tumor cells (10^7 cells in 200 μl of HBSS) were injected subcutaneously into the right flanks of mice. After engraftment, tumor volume was measured by Vernier callipers, and calculated as described in Balsari A et al. (Balsari A et al. (2004) Eur J Cancer 40: 1275-1281). At tumor volume about 150 mm3, animals were randomized, and separated into five groups of five animals. Control mice (group 1) were intraperitoneally injected with vehicle (10% DMSO in buffer saline) every day. GS-0 was dissolved in vehicle and intraperitoneally injected (group 2) every day (12 injections). GS-1 was dissolved in vehicle and intraperitoneally injected (group 3) every day (12 injections). Tumor volume and body weight were measured every other day over the treatment period (12 days). GS-1 as well as the control peptide GS-0 were solubilized in DMSO and the resulting solutions were diluted 10 times with phosphate buffer saline (PBS) to obtain a concentration of 1 mg of peptide/ml of 10% DMSO in PBS. At this concentration, all peptides were soluble in 10% DMSO."}, "[1]": {"test": "Body weight and toxicity of mice bearing NCI-H460 tumors (Example 2)", "format": "in vivo", "description": "All experiments were reviewed by the Genopole's institutional animal care and use committee and were performed in accordance with institutional guidelines for animal care. Female BALB/c nu/nu mice (n=30) were used at 5-6 weeks of age. The animals were housed in laminar air-flow cabinets under pathogen-free conditions with a 12 h light/12 h dark schedule, and fed autoclaved standard chow and water ad libitum. […] Tumor cells (10^7 cells in 200 μl of HBSS) were injected subcutaneously into the right flanks of mice. […] At tumor volume about 150 mm3, animals were randomized, and separated into five groups of five animals. Control mice (group 1) were intraperitoneally injected with vehicle (10% DMSO in buffer saline) every day. GS-0 was dissolved in vehicle and intraperitoneally injected (group 2) every day (12 injections). GS-1 was dissolved in vehicle and intraperitoneally injected (group 3) every day (12 injections). Tumor volume and body weight were measured every other day over the treatment period (12 days)."}, "[2]": {"test": "Solubility of peptides in 10% DMSO in PBS", "format": "physicochemical", "details": "1 mg of peptide/ml of 10% DMSO in PBS", "description": "GS-1 as well as the control peptide GS-0 were solubilized in DMSO and the resulting solutions were diluted 10 times with phosphate buffer saline (PBS) to obtain a concentration of 1 mg of peptide/ml of 10% DMSO in PBS. At this concentration, all peptides were soluble in 10% DMSO.\nGS-2 as well as the control peptide GS-0 were solubilized in DMSO and the resulting solutions were diluted 10 times with phosphate buffer saline (PBS) to obtain a concentration of 1 mg of peptide/ml of 10% DMSO in PBS. At this concentration, all peptides were soluble in 10% DMSO."}},
  "data": [
    {"substance": "Ac-NYICMG-NH2 [GS-0, NYICMG, reference compound]", "values": [
      {"measurement": "amounts of mTOR in HMEC relative to vehicle", "setting": "mTOR", "result": "equivalent amounts of mTOR as cell incubated with vehicle"},
      {"measurement": "influence on the in vivo growth of the tumor NCI-H460 (in words)", "setting": "NCI-H460 tumors; 8 mg/kg i.p. daily for 12 days", "result": "no significant influence"},
      {"measurement": "mean tumor volume at the end of treatment", "setting": "NCI-H460 tumors; 8 mg/kg i.p. daily for 12 days, n=5", "result": "1114.83 ± 534.50", "unit": "mm^3"},
      {"measurement": "Mean tumor volume D1", "setting": "NCI-H460 tumors; Table 2, 8 mg/kg i.p. daily, day 1", "result": 123, "unit": "mm³"},
      {"measurement": "Mean tumor volume D3", "setting": "NCI-H460 tumors; Table 2, 8 mg/kg i.p. daily, day 3", "result": 233, "unit": "mm³"},
      {"measurement": "Mean tumor volume D5", "setting": "NCI-H460 tumors; Table 2, 8 mg/kg i.p. daily, day 5", "result": 335, "unit": "mm³"},
      {"measurement": "Mean tumor volume D7", "setting": "NCI-H460 tumors; Table 2, 8 mg/kg i.p. daily, day 7", "result": 402, "unit": "mm³"},
      {"measurement": "Mean tumor volume D9", "setting": "NCI-H460 tumors; Table 2, 8 mg/kg i.p. daily, day 9", "result": 553, "unit": "mm³"},
      {"measurement": "Mean tumor volume D11", "setting": "NCI-H460 tumors; Table 2, 8 mg/kg i.p. daily, day 11", "result": 751, "unit": "mm³"},
      {"measurement": "Mean tumor volume D13", "setting": "NCI-H460 tumors; Table 2, 8 mg/kg i.p. daily, day 13", "result": 1110, "unit": "mm³"},
      {"measurement": "toxicity and body weight loss during treatment", "setting": "[1]; 8 mg/kg intraperitoneally every day, 12 injections", "result": "No toxicity and no body weight loss"},
      {"measurement": "Mean body weight D1", "setting": "[1]; Table 1, 8 mg/kg i.p. daily, day 1, in g", "result": 20.91},
      {"measurement": "Mean body weight D3", "setting": "[1]; Table 1, 8 mg/kg i.p. daily, day 3, in g", "result": 21.37},
      {"measurement": "Mean body weight D5", "setting": "[1]; Table 1, 8 mg/kg i.p. daily, day 5, in g", "result": 21.65},
      {"measurement": "Mean body weight D7", "setting": "[1]; Table 1, 8 mg/kg i.p. daily, day 7, in g", "result": 21.81},
      {"measurement": "Mean body weight D9", "setting": "[1]; Table 1, 8 mg/kg i.p. daily, day 9, in g", "result": 22.52},
      {"measurement": "Mean body weight D11", "setting": "[1]; Table 1, 8 mg/kg i.p. daily, day 11, in g", "result": 22.76},
      {"measurement": "Mean body weight D13", "setting": "[1]; Table 1, 8 mg/kg i.p. daily, day 13, in g", "result": 22.36},
      {"measurement": "solubility in 10% DMSO", "setting": "[2]", "result": "soluble"}
    ]}
  ]
}
